Experimental data from US20220241249A1, “PHARMACEUTICAL COMPOSITION AND KIT CONTAINING NOVEL PENAM DERIVATIVE OR SALT THEREOF AND ONE OR MORE COMPOUNDS SELECTED FROM beta-LACTAMASE INHIBITORY COMPOUND AND ANTIBACTERIAL COMPOUND OR SALTS THEREOF” (priority 2019, published 2022).
≈ marks a conversion by molar mass, not a printed value.

Key:
[1] = tested on: Klebsiella pneumoniae ATCC13883 strain (Klebsiella pneumoniae A); assay: Combinational effect of test compound and antibacterial compound, checkerboard FIC index; format: cell-based
Description: (§1) By using a broth microdilution method, the combinational effect of antibacterial activity of a test compound and an antibacterial compound was evaluated.
(§2) As bacterial strains, an Escherichia coli ATCC25922 strain (hereinafter, called Escherichia coli A), a Klebsiella pneumoniae ATCC13883 strain (hereinafter, called Klebsiella pneumoniae A), and a Pseudomonas aeruginosa ATCC27853 strain (hereinafter, called Pseudomonas aeruginosa A) were used.
(§3) The minimum inhibitory concentration (hereinafter, called MIC) was measured according to the Clinical and Laboratory Standards Institute (CLSI) standard method by using the following broth microdilution method.
(§4) The bacterial cells that had been cultured overnight on a Mueller Hinton agar medium were scraped off, suspended at a density equivalent to 0.5 McFarland standard. The obtained suspension was diluted at 10 fold, thereby obtaining an inoculum. Cation-adjusted Mueller Hinton media containing only a test compound, containing only an antibacterial compound, or containing a test compound and an antibacterial compound were inoculated with 0.005 mL of the inoculum, and the cells were cultured at 35° C. for 18 to 20 hours. The minimum drug concentration at which the growth of bacteria was not visually observed was defined as MIC (μg/mL).
(§5) The FIC Index is the minimum value calculated by the following formula.
(§6) FIC Index=(MIC value obtained in a case where test compound is used in combination/MIC value obtained in a case where test compound is used alone)+(MIC value obtained in a case where antibacterial compound is used in combination/MIC value obtained in a case where antibacterial compound is used alone)
(§7) In a case where the FIC Index was 0.5 or less, it was decided that the use of two drugs in combination brings about a synergistic effect.
(§8) In a case where the FIC Index was more than 0.5 and 1 or less, it was decided that the use of two drugs in combination brings about an additive effect. (Diagnostic Microbiology and Infectious Disease, 2004, Vol. 49, p. 197)

[2] = tested on: Pseudomonas aeruginosa ATCC27853 strain (Pseudomonas aeruginosa A); assay: as above; format: cell-based; conditions: for FIC index: Pseudomonas aeruginosa A, checkerboard
Description: as §1, §2, §3, §4, §5, §6, §7, §8

[3] = tested on: multidrug-resistant Pseudomonas aeruginosa strain (S-2838 strain); assay: Test for protection against systemic infection in mouse with multidrug-resistant Pseudomonas aeruginosa; format: in vivo; conditions: sc, 72 h, read-out: survival rate 3 days after the inoculation with bacteria
Description: As mice, ICR male SPF mice (4 weeks old: 10 mice per group) were used. Clinically isolated multidrug-resistant Pseudomonas aeruginosa strain (S-2838 strain) cultured overnight on a Mueller-Hinton agar plate at 37° C. was cultured on a cation-adjusted Mueller Hinton medium for 5 hours, and then diluted 20-fold with a 10% mucin/phosphate buffer, thereby preparing an inoculum. An infection was induced by intraperitoneally inoculating the mice with the inoculum at 0.5 mL (about 10^6 CFU/mouse). Each test compound was dissolved in physiological saline, and 1 hour after the infection, the compound was subcutaneously administered once to the mice at 40 mg/kg. The control group was administered with the same amount of physiological saline used as a vehicle. The number of surviving mice was recorded 3 days after the infection.
A test for protection against systemic infection in a mouse with multidrug-resistant Pseudomonas aeruginosa was performed in the same manner as in Test Example 2.

[4] = tested on: AmpC-derepressed Pseudomonas aeruginosa mutant strain (S-3028); assay: Antibacterial activity evaluation test, MIC by broth microdilution (CLSI); format: cell-based; conditions: Pseudomonas aeruginosa
In short: (§9)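 Colonies grown overnight on Mueller Hinton agar, suspended to 0.5 McFarland and diluted 10-fold as inoculum. Incubation in cation-adjusted Mueller Hinton broth with test compound at 35° C for 16–20 h. MIC (μg/mL) is the lowest concentration with no visible growth.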

[5] = tested on: IMP-1-containing Pseudomonas aeruginosa strain (S-2838); assay: as above; format: cell-based; conditions: Pseudomonas aeruginosa
In short: as §9

[6] = tested on: VIM-2-containing Pseudomonas aeruginosa strain (S-3779); assay: as above; format: cell-based; conditions: Pseudomonas aeruginosa
In short: as §9

[7] = tested on: CTX-M-15-containing Escherichia coli strain (TK-1747); assay: as above; format: cell-based; conditions: Escherichia coli
In short: as §9

[8] = tested on: NDM-1-containing Klebsiella pneumoniae strain (Y-1007); assay: as above; format: cell-based; conditions: Klebsiella pneumoniae
In short: as §9

[9] = tested on: GES-19 and GES-20-containing Pseudomonas aeruginosa strain (S-3759); assay: as above; format: cell-based; conditions: Pseudomonas aeruginosa
In short: as §9

[10] = tested on: OXA-48-containing Klebsiella pneumoniae strain (Y-1062); assay: as above; format: cell-based; conditions: Klebsiella pneumoniae
In short: as §9

[11] = tested on: KPC-2-containing Klebsiella pneumoniae strain (Y-995); assay: as above; format: cell-based; conditions: Klebsiella pneumoniae
In short: as §9

[12] = tested on: Pseudomonas aeruginosa strain ATCC27853; assay: as above; format: cell-based; conditions: Pseudomonas aeruginosa, ATCC27853
In short: as §9

Q: What does the source list for `CC(C)(O/N=C(\C(=O)NC1C(=O)N2C[C@@](C(=O)O)(N3CCN(NC(=O)C(=O)c4ccc(O)c(O)c4Cl)C(=O)C3=O)S[C@H]12)c1csc(N)n1)C(=O)O` (stereo partly drawn) [Example 126, (3R,5R,6R)-6-((Z)-2-(2-aminothiazol-4-yl)-2-(((2-carboxypropan-2-yl)oxy)imino)aceta-mido)-3-(4-(2-(2-chloro-3,4-dihydroxy-phenyl)-2-oxoaceta-mido)-2,3-dioxopipera-zin-1-yl)-7-oxo-4-thia-1-azabicyclo[3.2.0]-heptane-3-carboxylic acid]?
A: FIC index ([1]; in combination with AMK): 0.75; FIC index ([1]; in combination with CAZ): 0.625; FIC index ([1]; in combination with IPM): 0.375; FIC index ([1]; in combination with LVFX): 0.75; FIC index ([1]; in combination with MPC): 0.188; FIC index ([1]; in combination with PIPC): <0.5; FIC index ([1]; in combination with PL-B): 0.625; FIC index ([1]; in combination with RFP): 0.563; FIC index ([1]; in combination with VCM): <0.625; FIC index ([2]; in combination with AMK): 0.5; FIC index ([2]; in combination with CAZ): 0.563; FIC index ([2]; in combination with IPM): 0.188; FIC index ([2]; in combination with LVFX): 0.188; FIC index ([2]; in combination with PIPC): 0.75; FIC index ([2]; in combination with PL-B): 0.188; FIC index ([2]; in combination with RFP): 0.375; FIC index ([2]; in combination with TC): 0.25; FIC index ([2]; in combination with VCM): 0.266; combinational effect with other antibacterial compounds ([2]; main strains of Gram-negative bacteria, summary of Tables 40 to 42): additive or synergistic effect; responders at 40 mg/kg [3]: ≥ 90%; MIC [4]: 0.5 µg/mL (≈ 0.65 µM); MIC [5]: 2 µg/mL (≈ 2.6 µM); MIC [6]: 1 µg/mL (≈ 1.3 µM); MIC [7]: < 0.06 µg/mL; MIC [8]: < 0.06 µg/mL; MIC [9]: 0.5 µg/mL (≈ 0.65 µM); MIC [10]: 1 µg/mL (≈ 1.3 µM); MIC [11]: 0.12 µg/mL (≈ 0.156 µM); MIC [12]: 1 µg/mL (≈ 1.3 µM)
